From the NIST ThermoML archive (doi:10.1016/j.fluid.2011.05.002)

Columns and labels:
[1] = for mass density / viscosity: Liquid; for mass density: Vibrating tube method; for viscosity: 101.33 kPa, Capillary tube (Ostwald / Ubbelohde) method; for surface tension liquid-gas: Ring tensiometer
[2] = molar heat capacity at constant pressure; settings: 101.33 kPa, Liquid, Small sample (50 mg) DSC

CCCC[n+]1cccc(C)c1.N#C[C-](C#N)C#N [1-butyl-3-methylpyridinium tricyanomethanide]
Settings	mass density [kg/m3]	molar heat capacity at constant pressure [J/K/mol]	surface tension liquid-gas [mN/m]	viscosity [mPa·s]
[1], 283.15 K	1052.57	–	–	–
[1], 293.15 K	1045.79	–	–	–
[1], 295.15 K	–	–	–	51.42
[1], 296.05 K	–	–	27.7	–
[1], 298.15 K	–	–	–	43.92
[1], 303.15 K	1039.12	–	–	34.87
[1], 305.75 K	–	–	27.3	–
[1], 308.15 K	–	–	–	28.22
[1], 313.15 K	1032.55	–	–	23.27
[1], 313.75 K	–	–	26.9	–
[1], 320.65 K	–	–	26.6	–
[1], 323.15 K	1026.1	–	–	16.25
[1], 329.85 K	–	–	26.3	–
[1], 333.15 K	1019.76	–	–	12.19
[1], 338.15 K	–	–	26	–
[1], 343.15 K	1013.52	–	–	9.56
[1], 346.15 K	–	–	25.5	–
[1], 353.15 K	1007.34	–	–	7.54
[1], 356.15 K	–	–	25.1	–
[1], 363.15 K	1001.13	–	–	6.07
[2], 298 K	–	468	–	–
[2], 323 K	–	479	–	–
